{"source": "patent US9326988B2", "about": "“Treatment and/or prevention of parkinson's disease dementia with ceftriaxone” (CHUNG SHAN MEDICAL UNIVERSITY, priority 2012, dated 2016)", "key": {"rats with PDD [1]": {"tested_on": "rats with PDD", "test": "Immunohistochemical staining (OX-6) of activated microglia in the SNc of PDD rats", "format": "in vivo, male Wistar rats", "details": "Example 1 treatment group 1: 200 mg/kg daily i.p. for 14 days after MPTP-HCl; determined 15th day (FIG. 5)", "description": "In order to investigate whether ceftriaxone is effective in ameliorating neuroinflammation and neurodegeneration of the rats with PDD, on the 15th day after the MPTP-HCl injection, four rats were randomly selected from each of the treatment group 1, the sham-operated group 1, and the pathological control group for histopathological analysis.\nThe randomly selected rats were sacrificed using CO2, followed by perfusion with 4% paraformaldehyde (in phosphate buffered saline). The brains were rapidly removed and were post-fixed in a 30% sucrose solution containing 4% paraformaldehyde at 4° C. for at least three days. The brains were cut into coronal sections (a thickness of about 30 μm) using a cryostat (Leica CM3050 S, Leica).\nThe sections containing SNc were selected. […]\nThe experimental data are expressed as mean±SEM. The experimental data were subjected to one-way ANOVA and were subsequently subjected to LSD test such that the difference between the pathological control group and the sham-operated group 1, and the difference between the treatment group 1 and the pathological control group could be evaluated. […]"}, "[2]": {"tested_on": "6-hydroxydopamine (6-OHDA)-lesioned rats", "details": "6-OHDA-lesioned rats (animal model of PD); cited from earlier work"}, "aged-impaired (AI) rats": {"tested_on": "aged-impaired (AI) rats", "details": "daily dose of 200 mg/kg for 7 days; cited from earlier work"}, "rats with PDD [3]": {"tested_on": "rats with PDD", "test": "T-maze test (working memory) in MPTP-HCl-induced PDD rats", "format": "in vivo, male Wistar rats", "description": "1-methyl-4-phenyl-1,2,3,6-tetrahydropyridine hydrochloride (MPTP-HCl) was used to induce PDD in the rats, and the therapeutic effect of ceftriaxone on PDD was evaluated via behavioral tests and histopathological assessment of the brain for the rats. The experiments of this example were conducted substantially according to the method as described in Ho Y. J. et al. (2011), Behav. Brain Res., 219:280-290.\nThe rats in the pathological control group, the preventive groups, and the treatment groups were anesthetized using Zoletil (Virbac, Carros, France; 20 mg/kg, intraperitoneal injection). Afterward, 0.5 M MPTP-HCl (in saline) was slowly infused bilaterally into the substantia nigra pars compacta (SNc) of the mesencephalon of each rat in the pathological control group, the preventive groups, and the treatment groups (0.21 mg/side) so as to induce the same to develop PDD.\n5 days before the MPTP-HCl injection, ceftriaxone (Sigma) was administered to the rats in the preventive groups 1,2 via […] day after the MPTP-HCl injection. After the MPTP-HCl injection, […] 2,3 via intraperitoneal injection respectively at a daily dose of 200 mg/kg, at a daily dose of 100 mg/kg, and at a daily dose of 200 mg/kg, and saline was administered to the rats in the pathological control group and the sham-operated group 1 via intraperitoneal injection at a daily dose of 1 mL/kg. […] The rats in the pathological control group, the treatment groups 1,2,3, and the sham-operated groups 1,2,3 were subjected to the once-a-day administration until the end of the 14th day after the MPTP-HCl injection.\nStarting on the 8th day after the MPTP-HCl injection, the rats in each group were subjected to the T-maze test as described in section C of this example. Starting on the 12th day after the MPTP-HCl injection, the rats in each group were subjected to the object recognition test as described in section D of this example. On the 15th day after the MPTP-HCl injection, the rats in the treatment group 1, the sham-operated group 1, and the pathological control group were subjected to the histopathological analysis as described in section E of this example.\nIn order to investigate the effect of ceftriaxone on the working memory of the rats with PDD, on the 8th day after the MPTP-HCl injection, 11 rats, 32 rats, and 36 rats were randomly selected respectively from the treatment group 1, the sham-operated group 1, and the pathological control group, and the aforesaid randomly selected rats and each of the rats in the rest of the groups were subjected to a T-maze test. The T-maze test lasted a total of three days, and was conducted substantially according to the following methods: • (1) One day before the start of the T-maze test, the rats are subjected to 23 hours of fasting. Furthermore, on each of three days for the training session, after all of trials were finished, the rats were fed for an hour. • (2) The training session—the 1st and 2nd days of the T-maze test: • The respective rat is subjected to a total of 9 trials. In each of the trials, one forced run and one choice run were sequentially conducted. The time interval between the forced run and the choice run was 30 seconds. The respective rat was placed at the start end 11 of the T-maze to begin either the forced run or the choice run. When the forced run was conducted, the sliding door 22 of one of the two choice arms 2 was closed, and a food serving as a reward was placed at the terminal end 21 of the other one of the two choice arms 2."}}}
{"compound": "CO/N=C(\\C(=O)N[C@@H]1C(=O)N2C(C(=O)O)=C(CSc3nc(=O)c(=O)[nH]n3C)CS[C@H]12)c1csc(N)n1", "note": "[ceftriaxone, Ceftriaxone]", "values": [{"measurement": "density of activated microglia in the SNc compared to the pathological control group", "setting": "rats with PDD [1]", "result": "significantly lower"}, {"measurement": "motor symptoms", "setting": "[2]", "result": "useful in amelioration of motor symptoms"}, {"measurement": "neuroprotection of dopaminergic neurons", "setting": "[2]", "result": "neuroprotection of dopaminergic neurons"}, {"measurement": "cognitive impairment", "setting": "aged-impaired (AI) rats", "result": "able to ameliorate cognitive impairment of the AI rats"}, {"measurement": "correct response rate compared to the pathological control group", "setting": "rats with PDD [3]; Example 1 preventive group 1: 100 mg/kg daily i.p. from 5 days before MPTP-HCl to 14th day after, determined 10th day (FIG. 3)", "result": "higher"}, {"measurement": "correct response rate compared to the pathological control group", "setting": "rats with PDD [3]; Example 1 preventive group 2: 200 mg/kg daily i.p. from 5 days before MPTP-HCl to 14th day after, determined 10th day (FIG. 3)", "result": "higher"}, {"measurement": "correct response rate compared to the pathological control group", "setting": "rats with PDD [3]; Example 1 treatment group 1: 200 mg/kg daily i.p. after MPTP-HCl injection to 14th day, determined 10th day, difference statistically significant (FIG. 3)", "result": "higher"}, {"measurement": "correct response rate compared to the pathological control group", "setting": "rats with PDD [3]; Example 1 treatment group 2: 100 mg/kg daily i.p. starting 3rd day after MPTP-HCl to 14th day, determined 10th day, difference statistically significant (FIG. 3)", "result": "higher"}, {"measurement": "correct response rate compared to the pathological control group", "setting": "rats with PDD [3]; Example 1 treatment group 3: 200 mg/kg daily i.p. starting 3rd day after MPTP-HCl to 14th day, determined 10th day, difference statistically significant (FIG. 3)", "result": "higher"}, {"measurement": "correct response rate compared to the pathological control group", "setting": "rats with PDD [3]; Example 2 treatment group 1: 10 mg/kg daily i.p. after MPTP-HCl injection to 14th day, determined 10th day (FIG. 7)", "result": "significantly higher"}, {"measurement": "correct response rate compared to the pathological control group", "setting": "rats with PDD [3]; Example 2 treatment group 2: 50 mg/kg daily i.p. after MPTP-HCl injection to 14th day, determined 10th day (FIG. 7)", "result": "significantly higher"}]}
